# Reference: patent US20240226097A1, “METHODS OF CANCER TREATMENT USING A COMBINATION OF BTK INHIBITORS AND PI3 KINASE INHIBITORS” (priority 2021, published 2024)
# Key:
# Assay type in all cases: in vivo
# [1] = system: JeKo-1 cells; assay: JeKo-1 MCL xenograft mouse model, tumor growth inhibition; conditions: single agent, day 21
# Protocol: JeKo-1 cells are of mantle cell lymphoma (MCL) origin. These cells were cultured in RPMI1640 complete medium supplemented with 10% (v/v) fetal bovine serum, and 100 μg/mL of penicillin and streptomycin. NOD/SCID mice were pre-treated with cyclophosphamide (prepared in saline, 100 mg/kg, i.p.) and disulfiram (prepared in 0.8% Tween-80 in saline, 125 mg/kg, p.o., two hours after each dose of cyclophosphamide) once daily for two days.
# On the day of implantation, aggregated cells were dispersed. Four hours later, the media was removed, and the cells were collected and re-suspended in cold (4° C.) DPBS with a final concentration of 1×10^8 cells/mL. Re-suspended cells were placed on ice prior to inoculation. The right flank region of each mouse was cleaned with 75% ethanol prior to cell inoculation. Animals were then co-injected subcutaneously with 1×10^7 JeKo-1 cells in 100 μL of cell suspension in the right front flank via a 26-gauge needle.
# Animals were randomly divided into six groups with 10 mice per group. The groups consisted of vehicle group (0.5% (w/v) methylcellulose solution), 7.5 mg/kg BTK-1 (dissolved in 0.5% (w/v) methylcellulose solution), 12 mg/kg Compound 2 (dissolved in 0.5% (w/v) methylcellulose solution), 36 mg/kg Compound 2 (dissolved in 0.5% (w/v) methylcellulose solution), and the combination of Compound 2/BTK-1 (12 mg/kg Compound 2 and 7.5 mg/kg BTK-1), or (36 mg/kg Compound 2 and 7.5 mg/kg BTK-1), see Table 1. […]
# Both compounds were administered by oral gavage (p.o.) twice daily (BID). After implantation, primary tumor volume was measured in two dimensions using a caliper.
# (§1) Individual body weight was recorded twice weekly, with mice being monitored daily for clinical signs of toxicity for the duration of the study. […]
# (§2) Tumor volume was calculated using the formula: V=0.5×(a×b^2) where a and b are the long and short diameters of the tumor, respectively. Tumor growth inhibition (TGI) was calculated using the following formula: % TGI=100×[1−(treatedt/vehiclet)](treatedt=treated tumor volume at time t) and (vehiclet=vehicle tumor volume at time t)
# [2] = system: MINO cells; assay: MINO MCL xenograft mouse model, tumor growth inhibition; conditions: single agent, day 24
# Protocol: MINO cells are of MCL origin. The MINO cells were cultured in RPMI1640 complete medium supplemented with 10% (v/v) fetal bovine serum, and 100 μg/mL of penicillin and streptomycin. On the day of implantation, aggregated cells were dispersed. Four hours later, media was removed, and the cells were collected as described above. Cells were re-suspended in cold (4° C.) PBS with a final concentration of 1×10^8 cells/mL. Re-suspended cells were placed on ice prior to inoculation. The right flank region of each mouse (NOD/SCID) was cleaned with 75% ethanol prior to cell inoculation. Animals were then injected subcutaneously with 1×10^7 MINO cells in 100 μl of cell suspension in the right front flank via a 26-gauge needle.
# On day 1 after inoculation, animals were randomly divided into 6 groups with 10 mice per group according to the inoculation order. The groups consisted of vehicle group (0.5% (w/v) methylcellulose solution), 7.5 mg/kg BTK-1 (dissolved in 0.5% (w/v) methylcellulose solution), 12 mg/kg Compound 2 (dissolved in 0.5% (w/v) methylcellulose solution), 36 mg/kg Compound 2 (dissolved in 0.5% (w/v) methylcellulose solution) and the combination of Compound 2/BTK-1 (12 mg/kg Compound 2 and 7.5 mg/kg BTK-1), or (36 mg/kg Compound 2 and 7.5 mg/kg BTK-1), see Table 2. The compounds were administered by oral gavage (p.o.) twice daily (BID). After implantation, primary tumor volume was measured in two dimensions using a caliper. Compound 2 was (S)-3-(1-(8-amino-1-methylimidazo[1,5-a]pyrazin-3-yl)ethyl)-5-chloro-6-fluoro-2-isopropoxy-N-(2-(4-methylpiperazin-1-yl)ethyl)benzamide fumarate.
# (§3) Mice were euthanized using carbon dioxide when their tumor volume reached 2,000 mm^3 after twice measurements, the tumor was ulcerated, or body weight loss exceeded 20%.
# as §2
# [3] = system: TMD8 cells; assay: TMD8 DLBCL xenograft mouse model, tumor growth inhibition; conditions: single agent, day 14
# Protocol: TMD8 cells are of DLBCL origin. TMD8 cells were cultured in RPMI1640 complete medium supplemented with 10% (v/v) fetal bovine serum, and 100 μg/mL of penicillin and streptomycin. On the day of implantation, aggregated cells were dispersed. Four hours later, media was removed, and the cells were collected as described above. Cells were re-suspended in cold (4° C.) PBS and same volume of matrigel was added to give a final concentration of 5×10^7 cells/mL for TMD8. Re-suspended cells were placed on ice prior to inoculation. The right flank region of each mouse (NOD/SCID) was cleaned with 75% ethanol prior to cell inoculation. Animals were then injected subcutaneously with 1×10^7 TMD8 cells in 200 μl of cell suspension in the right front flank via a 26-gauge needle.
# On day 15 after inoculation, animals were randomly divided into 8 groups with 10 mice per group according to the tumor volume. The groups consisted of vehicle group (0.5% (w/v) methylcellulose solution), 2.5 mg/kg BTK-1 (dissolved in 0.5% (w/v) methylcellulose solution), 10 mg/kg Compound 1 (dissolved in 0.5% (w/v) methylcellulose solution), 30 mg/kg Compound 1 (dissolved in 0.5% (w/v) methylcellulose solution), 100 mg/kg Compound 1 (dissolved in 0.5% (w/v) methylcellulose solution) and the combination of Compound 1/BTK-1 (10 mg/kg Compound 1 and 2.5 mg/kg BTK-1), (30 mg/kg Compound 1 and 2.5 mg/kg BTK-1), or (100 mg/kg Compound 1 and 2.5 mg/kg BTK-1), see Table 3. BTK-1 and Compound 1 were administered by oral gavage (p.o.) twice daily (BID). After implantation, primary tumor volume was measured in two dimensions using a caliper. Compound 1 was (S)-3-(1-(8-amino-1-methylimidazo[1,5-a] pyrazin-3-yl)ethyl)-5-chloro-6-fluoro-2-isopropoxy-N-(2-(4-methylpiperazin-1-yl)ethyl)benzamide.
# as §3, with “Individual body weight was recorded twice weekly, with mice being monitored daily for clinical signs of toxicity for the duration of the study. Mice” for “Mice”
# (§4) Tumor volume was calculated using the formula: V=0.5×(a×b^2) where a and b are the long and short diameters of the tumor, respectively. Tumor growth inhibition (TGI) was calculated using the formula in the above examples.
# [4] = system: Farage cells; assay: Farage DLBCL xenograft mouse model, tumor growth inhibition; conditions: single agent, day 25
# Protocol: Farage cells are of DLBCL origin. Farage cells were cultured in RPMI1640 complete medium supplemented with 10% (v/v) fetal bovine serum, and 100 μg/mL of penicillin and streptomycin. On the day of implantation, aggregated cells were dispersed. Four hours later, media was removed and the cells were collected as described above. Cells were re-suspended in cold (4° C.) PBS and same volume of matrigel was added to give a final concentration of 1.5×10^7 cells/mL for Farage. Re-suspended cells were placed on ice prior to inoculation. The right flank region of each mouse (NCG) was cleaned with 75% ethanol prior to cell inoculation. Animals were then injected subcutaneously with 3×10^6 Farage cells in 100 μl of cell suspension in the right front flank via a 26-gauge needle.
# The animals were randomly divided into 6 groups with 10 mice per group. The groups consisted of vehicle group (0.5% (w/v) methylcellulose solution), 7.5 mg/kg BTK-1 (dissolved in 0.5% (w/v) methylcellulose solution), 12 mg/kg Compound 2 (dissolved in 0.5% (w/v) methylcellulose solution), 36 mg/kg Compound 2 (dissolved in 0.5% (w/v) methylcellulose solution), and the combination of Compound 2 and BTK-1 (12 mg/kg and 7.5 mg/kg, respectively), or (36 mg/kg and 7.5 mg/kg, respectively), see Table 4. BTK-1 and Compound 2 were administered as a combination by oral gavage (p.o.) twice daily (BID). After implantation, primary tumor volume was measured in two dimensions using a caliper. Compound 2 was (S)-3-(1-(8-amino-1-methylimidazo [1,5-a] pyrazin-3-yl) ethyl)-5-chloro-6-fluoro-2-isopropoxy-N-(2-(4-methylpiperazin-1-yl) ethyl) benzamide fumarate.
# as §1, §4
# [5] = Bioavailability of salts of Compound 1; conditions: among different salts of Compound 1
smiles,measurement,setting,value
"C=CC(=O)N1CCC([C@@H]2CCNc3c(C(N)=O)c(-c4ccc(Oc5ccccc5)cc4)nn32)CC1 [BTK-1, (S)-7-(1-acryloylpiperidin-4-yl)-2-(4-phenoxyphenyl)-4,5,6,7-tetra-hydropyrazolo[1,5-a]pyrimidine-3-carboxamide]",% TGI,[1]; 7.5 mg/kg p.o. BID,43%
same,% TGI,[2]; 7.5 mg/kg p.o. BID,22%
same,% TGI,[3]; 2.5 mg/kg p.o. BID,68%
same,% TGI,[4]; 7.5 mg/kg p.o. BID,43%
"Cc1nc([C@@H](C)c2cc(Cl)c(F)c(C(=O)NCCN3CCN(C)CC3)c2OC(C)C)n2ccnc(N)c12 [Compound 1, (S)-3-(1-(8-amino-1-methylimidazo[1,5-a]pyrazin-3-yl)ethyl)-5-chloro-6-fluoro-2-isopropoxy-N-(2-(4-methylpiperazin-1-yl)ethyl)benzamide]",% TGI,[3]; 10 mg/kg p.o. BID,27%
same,% TGI,[3]; 30 mg/kg p.o. BID,26%
same,% TGI,[3]; 100 mg/kg p.o. BID,43%
"Cc1nc([C@@H](C)c2cc(Cl)c(F)c(C(=O)NCCN3CCN(C)CC3)c2OC(C)C)n2ccnc(N)c12.O=C(O)/C=C/C(=O)O [Compound 2, (S)-3-(1-(8-amino-1-methylimidazo[1,5-a]pyrazin-3-yl)ethyl)-5-chloro-6-fluoro-2-isopropoxy-N-(2-(4-methylpiperazin-1-yl)ethyl)benzamide fumarate]",% TGI,[1]; 12 mg/kg p.o. BID,59%
same,% TGI,[1]; 36 mg/kg p.o. BID,62%
same,% TGI,[2]; 12 mg/kg p.o. BID,26%
same,% TGI,[2]; 36 mg/kg p.o. BID,36%
same,% TGI,[4]; 12 mg/kg p.o. BID,40%
same,% TGI,[4]; 36 mg/kg p.o. BID,52%
same,bioavailability,[5],high bioavailability
